# According to ChEMBL document CHEMBL5236647, “The discovery of 3,3-dimethyl-1,2,3,4-tetrahydroquinoxaline-1-carboxamides as AMPD2 inhibitors with a novel mechanism of action” (Bioorg Med Chem Lett, 2023):
# Activity calls are given as the source filed them. No cut-off for these calls is given here.
# Target: T1, AMP deaminase 2 (Homo sapiens, UniProt Q01433)
# T1 sequence (Q01433 whole entry): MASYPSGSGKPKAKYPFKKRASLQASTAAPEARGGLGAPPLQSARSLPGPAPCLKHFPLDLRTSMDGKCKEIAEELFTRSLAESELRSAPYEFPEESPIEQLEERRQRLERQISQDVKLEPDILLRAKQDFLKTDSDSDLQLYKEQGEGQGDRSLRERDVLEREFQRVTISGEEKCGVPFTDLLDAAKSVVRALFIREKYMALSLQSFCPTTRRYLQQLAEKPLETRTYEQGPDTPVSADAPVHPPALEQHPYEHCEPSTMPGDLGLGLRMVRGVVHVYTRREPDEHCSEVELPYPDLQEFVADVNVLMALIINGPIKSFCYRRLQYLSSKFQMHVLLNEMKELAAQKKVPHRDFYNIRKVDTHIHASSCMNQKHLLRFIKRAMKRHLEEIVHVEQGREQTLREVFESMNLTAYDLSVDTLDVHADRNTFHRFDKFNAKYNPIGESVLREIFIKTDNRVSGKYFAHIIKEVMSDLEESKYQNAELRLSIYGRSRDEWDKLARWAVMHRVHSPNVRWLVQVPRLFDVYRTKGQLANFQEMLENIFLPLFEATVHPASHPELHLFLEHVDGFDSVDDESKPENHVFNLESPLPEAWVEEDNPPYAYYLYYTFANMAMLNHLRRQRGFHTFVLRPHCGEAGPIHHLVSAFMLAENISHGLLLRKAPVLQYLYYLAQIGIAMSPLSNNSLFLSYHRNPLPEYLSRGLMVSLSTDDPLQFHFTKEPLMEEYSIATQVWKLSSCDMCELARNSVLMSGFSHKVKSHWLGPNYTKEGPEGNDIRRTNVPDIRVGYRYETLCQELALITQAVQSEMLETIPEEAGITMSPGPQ
# Assay: Inhibition of recombinant human AMPD2 using AMP as substrate incubated for 30 mins by spectrophotometric analysis
# Conditions: not given
row,SMILES,IC50
1,CC1(C)CN(C(N)=O)c2ccccc2N1Cc1cccc(CCc2ccccc2)c1,> 3000 nM
2,CC1(C)CN(C(N)=O)c2ccc(F)cc2N1Cc1ccccc1,5100 nM
3,CC1(C)CN(C(N)=O)c2ccccc2N1Cc1ccccc1Cl,21000 nM
4,Cc1cccc(CN2c3ccccc3N(C(N)=O)CC2(C)C)c1,2300 nM
5,CC1(C)CN(C(N)=O)c2ccccc2N1Cc1ccc(OCc2ccccc2)cc1,3100 nM
6,Cc1cccc2c1N(Cc1ccccc1)C(C)(C)CN2C(N)=O,5000 nM
7,CC1(C)CN(C(N)=O)c2c(F)cccc2N1Cc1ccccc1,4000 nM
8,CC(=O)N1CC(C)(C)N(Cc2ccccc2)c2ccccc21,57000 nM
9,CC1(C)CN(C(N)=O)c2ccccc2N1Cc1ccc(CCc2ccccc2)cc1,6000 nM
10,CCC(=O)N1CC(C)(C)N(Cc2ccccc2)c2ccccc21,> 100000 nM
11,CNC(=O)N1CC(C)(C)N(Cc2ccccc2)c2ccccc21,> 100000 nM
12,CC1(C)CN(S(C)(=O)=O)c2ccccc2N1Cc1ccccc1,> 100000 nM
13,CC1(C)CN(C(N)=O)c2ccccc2N1Cc1ccccc1,3000 nM

# More lines, now with the values ahead:
row,IC50,SMILES
1,4100 nM,CC1(C)CN(C(N)=O)c2ccccc2N1Cc1ccc(OC(F)(F)F)cc1
2,4100 nM,CC1(C)CN(C(N)=O)c2cc(F)cc(F)c2N1Cc1ccccc1
3,1900 nM,CC1(C)CN(C(N)=O)c2cc(F)ccc2N1Cc1ccccc1
4,1700 nM,CC1(C)CN(C(N)=O)c2ccccc2N1Cc1ccc(Cl)cc1
5,1700 nM,CC1(C)CN(C(N)=O)c2cccc(Cl)c2N1Cc1ccccc1
6,1400 nM,Cc1ccc(CN2c3ccccc3N(C(N)=O)CC2(C)C)cc1
7,1300 nM,CC1(C)CN(C(N)=O)c2ccccc2N1Cc1cccc(OC(F)(F)F)c1
8,2600 nM,CC1(C)CN(C(N)=O)c2ccccc2N1Cc1ccc(COc2ccccc2)cc1
9,1800 nM,CC1(C)CN(C(N)=O)c2ccc(F)c(F)c2N1Cc1ccccc1
10,1100 nM,CC1(C)CN(C(N)=O)c2cccc(F)c2N1Cc1ccccc1

# Tested on: not listed separately
# Assay: Ex vivo inhibition of AMPD2 in C57BL/6J mouse liver at 30 mg/kg, po administered for 1 hr
# Type: functional
# Conditions: not given
row,SMILES,inhibition in vivo at 30 mg/kg
1,CC1(C)CN(C(N)=O)c2ccc(F)c(F)c2N1Cc1ccccc1,71%
2,CC(=O)Nc1ccc(OCc2ccc(CN3c4c(ccc(F)c4F)N(C(N)=O)CC3(C)C)cc2)cc1,19%
3,CC1(C)CN(C(N)=O)c2ccc(F)c(F)c2N1Cc1ccc(COc2ccc(C(N)=O)cc2)cc1,58%
4,CC1(C)CN(C(N)=O)c2ccc(F)c(F)c2N1Cc1ccc(COc2ccc(CO)cc2)cc1,83%
5,CC1(C)CN(C(N)=O)c2ccc(F)c(F)c2N1Cc1ccc(COc2ccccc2)cc1,24%

# Target: T2, AMP deaminase 2 (Mus musculus, UniProt Q9DBT5)
# T2 sequence (Q9DBT5 whole entry): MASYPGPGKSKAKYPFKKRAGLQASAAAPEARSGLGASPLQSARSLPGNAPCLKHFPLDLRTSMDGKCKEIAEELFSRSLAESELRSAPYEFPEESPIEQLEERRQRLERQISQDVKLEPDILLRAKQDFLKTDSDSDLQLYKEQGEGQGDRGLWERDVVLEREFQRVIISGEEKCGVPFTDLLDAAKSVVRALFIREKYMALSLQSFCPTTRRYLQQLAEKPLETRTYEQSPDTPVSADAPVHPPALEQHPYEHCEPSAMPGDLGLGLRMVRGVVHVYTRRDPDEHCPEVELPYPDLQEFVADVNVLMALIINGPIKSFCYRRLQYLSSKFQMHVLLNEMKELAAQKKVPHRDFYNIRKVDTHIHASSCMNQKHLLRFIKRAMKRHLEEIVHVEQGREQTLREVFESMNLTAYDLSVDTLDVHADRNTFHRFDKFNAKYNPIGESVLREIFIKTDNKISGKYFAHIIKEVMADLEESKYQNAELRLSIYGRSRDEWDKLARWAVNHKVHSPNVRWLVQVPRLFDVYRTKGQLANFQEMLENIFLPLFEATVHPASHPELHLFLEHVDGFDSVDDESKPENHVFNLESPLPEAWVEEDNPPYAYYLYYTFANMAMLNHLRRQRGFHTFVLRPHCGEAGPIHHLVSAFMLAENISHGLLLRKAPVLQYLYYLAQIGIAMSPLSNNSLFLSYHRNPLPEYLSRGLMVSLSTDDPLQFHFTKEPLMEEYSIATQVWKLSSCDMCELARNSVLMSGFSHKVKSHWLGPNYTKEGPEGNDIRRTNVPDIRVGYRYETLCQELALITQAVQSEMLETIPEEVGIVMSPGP
# Assay: Inhibition of recombinant mouse AMPD2 using AMP as substrate preincubated for 30 mins followed by substrate addition and measured after 30 mins by spectrophotometric analysis
# Conditions: not given
row,IC50,SMILES
1,40 nM,CC1(C)CN(C(N)=O)c2ccc(F)c(F)c2N1Cc1ccccc1
2,110 nM,CC1(C)CN(C(N)=O)c2ccc(F)c(F)c2N1Cc1ccc(COc2ccc(CO)cc2)cc1

# Tested on: not listed separately
# Assay: Metabolic stability in mouse liver microsomes assessed as compound remaining at 5 uM after 1 hr
# Type: ADME, Microsome
# Conditions: read-out: Stability
row,"remaining at 1 h, 5 µM",SMILES
1,18%,CC1(C)CN(C(N)=O)c2ccc(F)c(F)c2N1Cc1ccccc1
2,34%,CC(=O)Nc1ccc(OCc2ccc(CN3c4c(ccc(F)c4F)N(C(N)=O)CC3(C)C)cc2)cc1
3,56%,CC1(C)CN(C(N)=O)c2ccc(F)c(F)c2N1Cc1ccc(COc2ccc(C(N)=O)cc2)cc1
4,46%,CC1(C)CN(C(N)=O)c2ccc(F)c(F)c2N1Cc1ccc(COc2ccc(CO)cc2)cc1
5,51%,CC1(C)CN(C(N)=O)c2ccc(F)c(F)c2N1Cc1ccc(COc2ccccc2)cc1

# Target: T3, AMP deaminase 1 (Homo sapiens) (UniProt P23109)
# T3 sequence (whole entry): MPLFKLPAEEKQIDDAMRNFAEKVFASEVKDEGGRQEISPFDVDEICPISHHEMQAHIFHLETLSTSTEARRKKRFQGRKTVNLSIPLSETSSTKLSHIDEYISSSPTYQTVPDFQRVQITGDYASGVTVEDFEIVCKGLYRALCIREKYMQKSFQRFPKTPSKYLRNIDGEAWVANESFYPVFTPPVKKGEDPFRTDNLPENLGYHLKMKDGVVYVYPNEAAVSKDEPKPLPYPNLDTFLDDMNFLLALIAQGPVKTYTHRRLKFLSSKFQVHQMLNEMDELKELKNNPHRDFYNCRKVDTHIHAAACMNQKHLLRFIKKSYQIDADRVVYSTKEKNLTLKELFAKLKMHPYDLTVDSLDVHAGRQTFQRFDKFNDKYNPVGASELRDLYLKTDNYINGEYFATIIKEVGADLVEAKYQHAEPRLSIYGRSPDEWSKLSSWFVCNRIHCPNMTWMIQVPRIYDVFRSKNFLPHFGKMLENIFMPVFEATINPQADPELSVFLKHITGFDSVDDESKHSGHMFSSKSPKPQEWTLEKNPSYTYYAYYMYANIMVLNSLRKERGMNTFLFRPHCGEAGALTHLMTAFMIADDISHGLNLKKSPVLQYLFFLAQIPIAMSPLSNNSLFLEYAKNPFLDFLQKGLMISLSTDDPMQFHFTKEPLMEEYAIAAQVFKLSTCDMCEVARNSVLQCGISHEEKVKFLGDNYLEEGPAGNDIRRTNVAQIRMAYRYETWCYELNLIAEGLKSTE
# Assay: Inhibition of AMPD1 (unknown origin) at 100 uM
# Conditions: not given
row,inhibition,SMILES
1,inactive,CC1(C)CN(C(N)=O)c2ccccc2N1Cc1ccccc1

# Target: T4, AMP deaminase 2 (Homo sapiens) (UniProt Q01433)
# T4 sequence (whole entry): T1 sequence (Q01433 whole entry)
# Assay: Selectivity ratio of IC50 for recombinant human AMPD2 using AMP as substrate incubated for 30 mins by spectrophotometric analysis to IC50 for recombinant human AMPD2 using AMP as substrate preincubated for 30 mins followed by substrate addition and measured after 30 mins by spectrophotometric analysis
# Conditions: not given
row,SMILES,Ratio IC50
1,CC1(C)CN(C(N)=O)c2ccc(F)cc2N1Cc1ccccc1,4.6
2,CC1(C)CN(C(N)=O)c2ccccc2N1Cc1ccccc1Cl,1.8
3,Cc1cccc(CN2c3ccccc3N(C(N)=O)CC2(C)C)c1,7.5
4,CC1(C)CN(C(N)=O)c2ccccc2N1Cc1ccc(OCc2ccccc2)cc1,4.2
5,Cc1cccc2c1N(Cc1ccccc1)C(C)(C)CN2C(N)=O,2.3
6,CC1(C)CN(C(N)=O)c2c(F)cccc2N1Cc1ccccc1,8
7,CC(=O)N1CC(C)(C)N(Cc2ccccc2)c2ccccc21,1.4
8,CC1(C)CN(C(N)=O)c2ccccc2N1Cc1ccc(CCc2ccccc2)cc1,15
9,CC1(C)CN(C(N)=O)c2ccccc2N1Cc1ccccc1,11

# Second part, the compound after the results:
row,Ratio IC50,SMILES
1,15,CC1(C)CN(C(N)=O)c2ccccc2N1Cc1ccc(OC(F)(F)F)cc1
2,16,CC1(C)CN(C(N)=O)c2cc(F)cc(F)c2N1Cc1ccccc1
3,8.2,CC1(C)CN(C(N)=O)c2cc(F)ccc2N1Cc1ccccc1
4,8.9,CC1(C)CN(C(N)=O)c2ccccc2N1Cc1ccc(Cl)cc1
5,9.2,CC1(C)CN(C(N)=O)c2cccc(Cl)c2N1Cc1ccccc1
6,8.2,Cc1ccc(CN2c3ccccc3N(C(N)=O)CC2(C)C)cc1
7,9.2,CC1(C)CN(C(N)=O)c2ccccc2N1Cc1cccc(OC(F)(F)F)c1
8,25,CC1(C)CN(C(N)=O)c2ccccc2N1Cc1ccc(COc2ccccc2)cc1
9,33,CC1(C)CN(C(N)=O)c2ccc(F)c(F)c2N1Cc1ccccc1
10,36,CC1(C)CN(C(N)=O)c2cccc(F)c2N1Cc1ccccc1

# Target: T1, AMP deaminase 2
# Assay: Inhibition of recombinant human AMPD2 using AMP as substrate preincubated for 30 mins followed by substrate addition and measured after 30 mins by spectrophotometric analysis
# Conditions: not given
row,SMILES,IC50
1,CC1(C)CN(C(N)=O)c2ccccc2N1Cc1cccc(CCc2ccccc2)c1,500 nM
2,CC1(C)CN(C(N)=O)c2ccc(F)cc2N1Cc1ccccc1,1100 nM
3,CC1(C)CN(C(N)=O)c2ccccc2N1Cc1ccccc1Cl,12000 nM
4,Cc1cccc(CN2c3ccccc3N(C(N)=O)CC2(C)C)c1,300 nM
5,CC1(C)CN(C(N)=O)c2ccccc2N1Cc1ccc(OCc2ccccc2)cc1,740 nM
6,Cc1cccc2c1N(Cc1ccccc1)C(C)(C)CN2C(N)=O,2200 nM
7,CC1(C)CN(C(N)=O)c2c(F)cccc2N1Cc1ccccc1,500 nM
8,CC(=O)N1CC(C)(C)N(Cc2ccccc2)c2ccccc21,41000 nM
9,CC1(C)CN(C(N)=O)c2ccccc2N1Cc1ccc(CCc2ccccc2)cc1,410 nM
10,CC1(C)CN(C(N)=O)c2ccccc2N1Cc1ccccc1,270 nM

# Continued, values first:
row,IC50,SMILES
1,270 nM,CC1(C)CN(C(N)=O)c2ccccc2N1Cc1ccc(OC(F)(F)F)cc1
2,260 nM,CC1(C)CN(C(N)=O)c2cc(F)cc(F)c2N1Cc1ccccc1
3,240 nM,CC1(C)CN(C(N)=O)c2cc(F)ccc2N1Cc1ccccc1
4,200 nM,CC1(C)CN(C(N)=O)c2ccc(F)c(F)c2N1Cc1ccc(COc2ccc(C(N)=O)cc2)cc1
5,190 nM,CC1(C)CN(C(N)=O)c2ccccc2N1Cc1ccc(Cl)cc1
6,180 nM,CC1(C)CN(C(N)=O)c2cccc(Cl)c2N1Cc1ccccc1
7,170 nM,CC(=O)Nc1ccc(OCc2ccc(CN3c4c(ccc(F)c4F)N(C(N)=O)CC3(C)C)cc2)cc1
8,170 nM,Cc1ccc(CN2c3ccccc3N(C(N)=O)CC2(C)C)cc1
9,140 nM,CC1(C)CN(C(N)=O)c2ccccc2N1Cc1cccc(OC(F)(F)F)c1
10,130 nM,CC1(C)CN(C(N)=O)c2ccc(F)c(F)c2N1Cc1ccc(COc2ccccc2)cc1
11,110 nM,CC1(C)CN(C(N)=O)c2ccccc2N1Cc1ccc(COc2ccccc2)cc1
12,100 nM,CC1(C)CN(C(N)=O)c2ccc(F)c(F)c2N1Cc1ccc(COc2ccc(CO)cc2)cc1
13,60 nM,CC1(C)CN(C(N)=O)c2ccc(F)c(F)c2N1Cc1ccccc1
14,30 nM,CC1(C)CN(C(N)=O)c2cccc(F)c2N1Cc1ccccc1
